From PMC13422867, “An orally available PfPKG inhibitor blocks Plasmodium’s infection of the liver” (PLOS Pathogens, 2026)

Key:
P. falciparum Dd2-B2 = assay: Asexual blood stage growth inhibition, SYBR Green I, 72 h; format: cell-based; conditions: Plasmodium falciparum, mean (standard error) of 3 biological replicates
Experimental: (§1) Asexual blood stage P. falciparum strains, including 3D7 and drug-resistant field isolates, were cultured using standard conditions in RPMI 1640 with 0.5% Albumax as described previously. EC₅₀ values were determined using a SYBR Green I fluorescence assay after 72 h of compound exposure. EC50 values were derived by nonlinear regression in GraphPad Prism version 10.

P. falciparum K1 = assay: as above; format: cell-based; conditions: Plasmodium falciparum, mean (standard error) of 3 biological replicates
Experimental: as §1

P. falciparum 7G8 = assay: as above; format: cell-based; conditions: Plasmodium falciparum, mean (standard error) of 3 biological replicates
Experimental: as §1

P. falciparum 3D7 = assay: as above; format: cell-based; conditions: Plasmodium falciparum, mean (standard error) of 3 biological replicates
Experimental: as §1

[1] = system: P. falciparum sporozoites; assay: Sporozoite infection of primary human hepatocytes, high-content imaging; format: cell-based, Plasmodium falciparum
Experimental: Liver stage antimalarial activity was evaluated using sporozoites from P. falciparum (NF54 strain) and P. cynomolgi bastianellii (B strain). P. falciparum-infected Anopheles stephensi mosquitoes were reared at WRAIR, while P. cynomolgi-infected Anopheles dirus mosquitoes were obtained from the Armed Forces Research Institute of Medical Sciences (AFRIMS), Thailand. Sporozoites were isolated by dissecting salivary glands under sterile conditions, followed by gentle mechanical disruption. Freshly isolated sporozoites were immediately used for hepatocyte infection. […]
(§2) Cells were fixed using 4% paraformaldehyde for 20 minutes at room temperature, followed by three PBS washes, and stored at 4°C until further processing. Parasite detection was performed using species-specific primary antibodies, with P. cynomolgi parasites labeled using a mouse monoclonal anti-Plasmodium GAPDH antibody (1.6 μg/mL, European Malaria Reagent Repository) and P. falciparum parasites detected using a rabbit polyclonal anti-PfHSP70 antibody (1:70 dilution, LS Bio, USA). […]
(§3) High-content imaging was performed using the Operetta CLS system (Revvity) and image analysis was performed with Harmony software version 4.9 (Revvity, Waltham, MA, USA). Images were acquired at 10x or 20x magnification using DAPI and TRITC fluorescence channels. […]

[2] = system: primary simian hepatocytes; assay: Cellular cytotoxicity, hepatocyte nuclear counts; format: cell-based
Text: (§4) Primary cryopreserved hepatocytes were selected based on host-parasite compatibility: primary simian hepatocytes (lot OQB) for P. cynomolgi and human hepatocytes (lot BGW) for P. falciparum (BioIVT Inc., Baltimore, MD, USA). Cells were thawed according to the manufacturer’s protocol and seeded into 384-well collagen-coated assay plates (Greiner Bio-One, Monroe, NC, USA) using InVitroGro CP plating medium (BioIVT). Seeding densities were optimized for uniform monolayer formation, and hepatocytes were allowed to adhere for 24–48 hours before infection. Sporozoites were added at a 1:1.1 hepatocyte-to-sporozoite ratio within 48 hours post-seeding. Automated robotic systems were used for media changes and compound additions to ensure assay consistency and minimize variability associated with manual pipetting.
(§5) Test compounds (PfPKG inhibitors) and assay drug controls (KDU-691 and tafenoquine) were solubilized in DMSO or PBS and serially diluted into 8- or 12-point, 2- or 3-fold series, achieving final assay concentrations ranging from 20 µM to 0.019 µM. Compounds were introduced using a calibrated pin tool controlled by robotic arms (V&P Scientific), ensuring a 1:1000 dilution into assay wells. Media were replenished daily with fresh drug-containing HCM. Compounds were added 1-hour post-infection (p.i.) (day 0) and administered daily for 3 days. Cells were fixed on day 6 p.i. of P. falciparum culture and day 8 for P. cynomolgi infected culture, coinciding with liver stage schizont maturation.
(§6) High-content imaging was performed using the Operetta CLS system (Revvity) and image analysis was performed with Harmony software version 4.9 (Revvity, Waltham, MA, USA). Images were acquired at 10x or 20x magnification using DAPI and TRITC fluorescence channels. Following the established protocol, parasites were classified as hypnozoites or schizonts based on fluorescence intensity (mean and maximum), morphological features (cell roundness and size), and segmentation criteria. Hepatocyte nuclei were identified using Hoechst 33342 staining. Background signal was captured in uninfected, stained wells and subjected to the same parasite detection algorithm. Estimate erroneous parasite counts were then subtracted from infected well counts. Hepatocyte viability was determined by quantifying nuclear counts per well using Hoechst stain intensity thresholds. […] An in-house built Python-based image analysis script identified parasite objects using predefined fluorescence intensity thresholds. […] Parasite size was quantified by calculating the average object area (µm²) of validated parasite structures per well. […] Dose-response inhibition and IC50 were calculated relative to in-plate negative controls (DMSO-treated wells). […]

P. cynomolgi schizont = assay: Schizont formation in primary simian hepatocytes, high-content imaging; format: cell-based, Plasmodium cynomolgi
Experimental: (§7) Liver stage antimalarial activity was evaluated using sporozoites from P. falciparum (NF54 strain) and P. cynomolgi bastianellii (B strain). P. falciparum-infected Anopheles stephensi mosquitoes were reared at WRAIR, while P. cynomolgi-infected Anopheles dirus mosquitoes were obtained from the Armed Forces Research Institute of Medical Sciences (AFRIMS), Thailand. Sporozoites were isolated by dissecting salivary glands under sterile conditions, followed by gentle mechanical disruption. Freshly isolated sporozoites were immediately used for hepatocyte infection.
as §4
as §5, with “Compounds were added 1-hour post-infection (p.i.) (day 0) and administered daily for 3 days. Cells were fixed on day 6 p.i. of P. falciparum culture and day 8 for P. cynomolgi infected culture, coinciding with liver stage schizont maturation.” left out
as §2
as §3, with “channels. Following the established protocol, parasites were classified as hypnozoites or schizonts based on fluorescence intensity (mean and maximum), morphological features (cell roundness and size), and segmentation criteria.” for “channels.”

[3] = system: primary human hepatocytes; assay: Cellular cytotoxicity, hepatocyte nuclear counts; format: cell-based; conditions: cellular cytotoxicity
Text: as §4
Test compounds (PfPKG inhibitors) and assay drug controls (KDU-691 and tafenoquine) were solubilized in DMSO or PBS and serially diluted into 8- or 12-point, 2- or 3-fold series, achieving final assay concentrations ranging from 20 µM to 0.019 µM. […]
as §6, with “Hepatocyte nuclei were identified using Hoechst 33342 staining. Background signal was captured in uninfected, stained wells and subjected to the same parasite detection algorithm. Estimate erroneous parasite counts were then subtracted from infected well counts.” left out

P. cynomolgi hypnozoite = assay: Hypnozoite formation in primary simian hepatocytes, high-content imaging; format: cell-based, Plasmodium cynomolgi
Experimental: as §7, §4
as §5, with “Compounds were added 1-hour post-infection (p.i.) (day 0) and administered daily for 3 days. Cells were fixed on day 6 p.i. of P. falciparum culture and day 8 for P. cynomolgi infected culture, coinciding with liver stage schizont maturation.” left out
as §2
as §3, with “channels. Following the established protocol, parasites were classified as hypnozoites or schizonts based on fluorescence intensity (mean and maximum), morphological features (cell roundness and size), and segmentation criteria.” for “channels.”

ROCK2 = molecular target: T1, ROCK2 (Homo sapiens, UniProt O75116); assay: KdElect binding affinity assay; conditions: for Kd for ROCK2 higher compared to RUPB-61: range over RUPB-8, -18, -34 and over ROCK1 and ROCK2; for Kd: read-out: ROCK2 Experimental Kd
T1 construct: purchased Eurofins (DiscoverX)
Experimental: (§8) Off-target kinase inhibition was assessed using the DiscoverX scanMAX (Eurofins) panel at 1 µM compound concentration. Binding affinities of CIT, ROCK1 and ROCK2 were evaluated using the KdElect assay (Eurofins).

ROCK1 = molecular target: T2, ROCK1 (Homo sapiens, UniProt Q13464); assay: KdElect binding affinity assay; conditions: for Kd for ROCK1 higher compared to RUPB-61: range over RUPB-8, -18, -34 and over ROCK1 and ROCK2; for Kd: read-out: ROCK1 Experimental Kd; for ROCK1 Experimental Binding (ΔG): ∆G = -RTln(Kd), 300K
T2 construct: purchased Eurofins (DiscoverX)
Experimental: as §8

CIT = molecular target: T3, CIT (Homo sapiens, UniProt O14578); assay: KdElect binding affinity assay; conditions: for Kd: read-out: CIT Experimental Kd; for Kd for CIT higher compared to RUPB-61: range over RUPB-18, -34, -69
T3 construct: purchased Eurofins (DiscoverX)
Experimental: as §8

[4] = system: P. falciparum CamWT and CamC580Y; conditions: ring-stage assays; cited from earlier work
P. falciparum TM90_C2B = assay: Asexual blood stage growth inhibition, SYBR Green I, 72 h; format: cell-based; conditions: Plasmodium falciparum, mean (standard error) of 3 biological replicates
Experimental: as §1

T3 sequence (O14578 whole entry): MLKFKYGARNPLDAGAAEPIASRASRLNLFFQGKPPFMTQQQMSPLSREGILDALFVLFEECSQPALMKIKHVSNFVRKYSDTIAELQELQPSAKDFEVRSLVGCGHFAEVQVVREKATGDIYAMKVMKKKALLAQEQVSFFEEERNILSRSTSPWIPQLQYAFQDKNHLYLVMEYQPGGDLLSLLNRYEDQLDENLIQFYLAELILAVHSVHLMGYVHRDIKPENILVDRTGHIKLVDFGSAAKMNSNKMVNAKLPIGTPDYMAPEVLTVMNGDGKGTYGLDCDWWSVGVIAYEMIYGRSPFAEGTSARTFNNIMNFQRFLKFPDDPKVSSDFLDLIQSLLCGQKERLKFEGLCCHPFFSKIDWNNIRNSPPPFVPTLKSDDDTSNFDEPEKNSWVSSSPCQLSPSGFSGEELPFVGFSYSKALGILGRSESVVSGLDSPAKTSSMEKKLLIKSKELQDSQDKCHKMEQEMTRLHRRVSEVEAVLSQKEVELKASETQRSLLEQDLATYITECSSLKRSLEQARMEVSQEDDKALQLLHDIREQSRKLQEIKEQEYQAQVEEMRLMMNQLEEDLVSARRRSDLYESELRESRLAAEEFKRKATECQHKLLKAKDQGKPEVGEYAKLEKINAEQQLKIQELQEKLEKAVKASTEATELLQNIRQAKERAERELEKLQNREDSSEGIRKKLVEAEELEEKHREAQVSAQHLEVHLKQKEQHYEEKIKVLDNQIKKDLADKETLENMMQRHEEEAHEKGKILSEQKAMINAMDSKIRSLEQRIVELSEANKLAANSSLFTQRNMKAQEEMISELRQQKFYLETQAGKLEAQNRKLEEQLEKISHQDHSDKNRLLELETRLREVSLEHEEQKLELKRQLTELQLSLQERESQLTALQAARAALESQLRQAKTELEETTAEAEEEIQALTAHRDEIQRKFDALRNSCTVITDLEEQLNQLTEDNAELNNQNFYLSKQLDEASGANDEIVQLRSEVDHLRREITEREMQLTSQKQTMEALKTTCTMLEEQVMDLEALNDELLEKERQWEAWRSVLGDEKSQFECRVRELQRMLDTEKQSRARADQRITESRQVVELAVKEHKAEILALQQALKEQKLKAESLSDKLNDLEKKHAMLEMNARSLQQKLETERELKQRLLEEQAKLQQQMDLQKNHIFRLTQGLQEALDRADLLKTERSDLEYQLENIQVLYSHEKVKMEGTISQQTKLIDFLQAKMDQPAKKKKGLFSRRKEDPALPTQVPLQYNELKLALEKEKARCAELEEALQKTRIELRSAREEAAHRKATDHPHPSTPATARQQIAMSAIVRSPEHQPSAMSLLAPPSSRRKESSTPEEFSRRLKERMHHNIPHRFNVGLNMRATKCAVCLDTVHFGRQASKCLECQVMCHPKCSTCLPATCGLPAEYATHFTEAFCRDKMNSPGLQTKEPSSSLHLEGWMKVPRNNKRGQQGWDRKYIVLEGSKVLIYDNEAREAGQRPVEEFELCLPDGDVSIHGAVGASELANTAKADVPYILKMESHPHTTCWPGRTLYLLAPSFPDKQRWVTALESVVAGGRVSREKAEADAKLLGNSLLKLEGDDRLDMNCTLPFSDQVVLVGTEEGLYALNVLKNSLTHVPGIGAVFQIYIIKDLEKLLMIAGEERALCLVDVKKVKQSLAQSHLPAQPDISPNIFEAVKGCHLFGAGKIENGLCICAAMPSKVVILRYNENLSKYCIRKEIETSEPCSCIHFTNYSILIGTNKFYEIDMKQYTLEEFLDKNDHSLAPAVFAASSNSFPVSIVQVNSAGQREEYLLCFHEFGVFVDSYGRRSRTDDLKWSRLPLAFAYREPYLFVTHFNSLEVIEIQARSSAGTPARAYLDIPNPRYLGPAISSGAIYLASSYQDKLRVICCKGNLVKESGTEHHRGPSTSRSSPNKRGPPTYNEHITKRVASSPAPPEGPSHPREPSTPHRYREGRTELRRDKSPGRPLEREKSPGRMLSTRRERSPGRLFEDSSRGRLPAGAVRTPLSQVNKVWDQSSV
T1 sequence (O75116 whole entry): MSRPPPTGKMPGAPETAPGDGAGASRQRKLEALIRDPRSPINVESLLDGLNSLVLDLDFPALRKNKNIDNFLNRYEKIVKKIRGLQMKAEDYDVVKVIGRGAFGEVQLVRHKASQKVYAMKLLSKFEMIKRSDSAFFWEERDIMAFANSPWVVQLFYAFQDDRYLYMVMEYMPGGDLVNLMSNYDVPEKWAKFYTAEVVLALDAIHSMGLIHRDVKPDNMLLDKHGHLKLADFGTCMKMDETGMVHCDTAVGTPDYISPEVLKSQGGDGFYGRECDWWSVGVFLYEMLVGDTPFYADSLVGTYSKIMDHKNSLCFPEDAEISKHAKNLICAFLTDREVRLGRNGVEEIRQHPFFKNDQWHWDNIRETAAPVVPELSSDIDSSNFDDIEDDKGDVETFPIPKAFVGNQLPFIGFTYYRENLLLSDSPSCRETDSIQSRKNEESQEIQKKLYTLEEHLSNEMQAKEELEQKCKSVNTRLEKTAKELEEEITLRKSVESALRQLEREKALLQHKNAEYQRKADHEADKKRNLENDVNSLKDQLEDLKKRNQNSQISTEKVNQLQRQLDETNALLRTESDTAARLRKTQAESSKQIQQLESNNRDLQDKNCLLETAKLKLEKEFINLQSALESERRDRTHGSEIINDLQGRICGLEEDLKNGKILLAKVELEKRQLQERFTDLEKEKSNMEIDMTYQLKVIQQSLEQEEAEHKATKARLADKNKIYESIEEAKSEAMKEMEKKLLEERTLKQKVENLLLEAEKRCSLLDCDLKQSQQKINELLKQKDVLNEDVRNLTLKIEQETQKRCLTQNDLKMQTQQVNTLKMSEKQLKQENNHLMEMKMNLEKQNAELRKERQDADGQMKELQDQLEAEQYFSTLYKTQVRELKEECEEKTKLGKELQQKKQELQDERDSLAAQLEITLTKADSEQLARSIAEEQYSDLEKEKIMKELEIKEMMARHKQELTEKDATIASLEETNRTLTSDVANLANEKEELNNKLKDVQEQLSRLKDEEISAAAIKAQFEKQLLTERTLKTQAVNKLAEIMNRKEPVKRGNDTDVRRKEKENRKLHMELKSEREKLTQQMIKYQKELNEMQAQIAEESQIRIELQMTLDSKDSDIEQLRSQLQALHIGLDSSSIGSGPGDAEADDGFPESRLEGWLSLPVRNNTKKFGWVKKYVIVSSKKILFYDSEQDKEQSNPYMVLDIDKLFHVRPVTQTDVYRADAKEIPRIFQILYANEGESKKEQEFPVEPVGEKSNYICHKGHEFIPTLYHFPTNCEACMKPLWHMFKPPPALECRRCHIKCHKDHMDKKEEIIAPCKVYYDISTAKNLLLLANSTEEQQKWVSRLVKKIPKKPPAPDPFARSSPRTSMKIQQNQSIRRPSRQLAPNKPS
T2 sequence (Q13464 whole entry): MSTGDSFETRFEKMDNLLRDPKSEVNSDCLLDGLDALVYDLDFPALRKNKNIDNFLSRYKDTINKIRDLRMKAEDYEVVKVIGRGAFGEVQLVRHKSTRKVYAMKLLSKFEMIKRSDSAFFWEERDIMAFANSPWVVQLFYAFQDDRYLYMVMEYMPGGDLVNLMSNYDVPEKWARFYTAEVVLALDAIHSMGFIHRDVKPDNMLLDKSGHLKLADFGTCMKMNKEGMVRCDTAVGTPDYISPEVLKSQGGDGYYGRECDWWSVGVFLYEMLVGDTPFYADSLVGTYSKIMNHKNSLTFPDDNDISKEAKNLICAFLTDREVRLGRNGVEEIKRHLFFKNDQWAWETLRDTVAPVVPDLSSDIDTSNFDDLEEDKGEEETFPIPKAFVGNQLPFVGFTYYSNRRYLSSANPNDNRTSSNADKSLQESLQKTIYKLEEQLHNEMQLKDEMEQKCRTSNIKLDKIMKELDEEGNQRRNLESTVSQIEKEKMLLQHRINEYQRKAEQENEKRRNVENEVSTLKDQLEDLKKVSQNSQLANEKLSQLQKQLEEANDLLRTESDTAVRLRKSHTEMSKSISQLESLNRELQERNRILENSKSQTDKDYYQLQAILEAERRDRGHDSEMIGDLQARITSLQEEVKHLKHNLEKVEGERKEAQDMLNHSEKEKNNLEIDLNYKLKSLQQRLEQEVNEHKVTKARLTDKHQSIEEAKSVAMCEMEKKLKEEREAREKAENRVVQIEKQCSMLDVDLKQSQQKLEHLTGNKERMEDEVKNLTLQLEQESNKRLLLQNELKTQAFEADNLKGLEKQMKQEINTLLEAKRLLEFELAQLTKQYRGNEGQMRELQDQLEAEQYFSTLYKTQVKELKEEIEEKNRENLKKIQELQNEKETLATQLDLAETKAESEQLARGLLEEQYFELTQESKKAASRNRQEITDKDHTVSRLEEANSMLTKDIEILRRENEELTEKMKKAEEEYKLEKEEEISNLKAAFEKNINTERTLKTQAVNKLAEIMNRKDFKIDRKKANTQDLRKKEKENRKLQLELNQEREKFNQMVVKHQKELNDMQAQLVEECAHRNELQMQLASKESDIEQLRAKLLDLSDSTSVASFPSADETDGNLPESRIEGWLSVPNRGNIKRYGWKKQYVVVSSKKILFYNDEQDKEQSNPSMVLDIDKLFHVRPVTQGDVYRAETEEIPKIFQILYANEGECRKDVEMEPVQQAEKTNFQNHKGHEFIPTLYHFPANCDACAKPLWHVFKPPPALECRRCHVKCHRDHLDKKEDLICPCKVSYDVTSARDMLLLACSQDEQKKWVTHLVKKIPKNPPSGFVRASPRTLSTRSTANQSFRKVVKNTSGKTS

Row | SMILES | IC50 (P. falciparum Dd2-B2) | IC50 (P. falciparum K1) | IC50 (P. falciparum 7G8) | IC50 (P. falciparum 3D7) | Kd for ROCK2 higher compared to RUPB-61 (ROCK2) | Kd (ROCK2) | Kd for ROCK1 higher compared to RUPB-61 (ROCK1) | Kd (ROCK1) | ROCK1 Experimental Binding (ΔG) (ROCK1) | Kd (CIT) | Kd for CIT higher compared to RUPB-61 (CIT) | further results
1 | C[C@H]1[C@@H](O)O[C@@H]2O[C@@]3(C)CC[C@H]4[C@H](C)CC[C@@H]1[C@@]24OO3 [DHA, dihydroartemisinin, reference compound] | 3 nM | 2 nM | 0.5 nM | 2 nM | – | – | – | – | – | – | – | –
2 | CNC(=O)c1ccc(-c2cnc3cnc(C(=O)N(C)c4ccc(Cl)cc4)cn23)cc1 [KDU-691] | – | – | – | – | – | – | – | – | – | – | – | IC50 [1]: 51 nM; CC50 [2]: > 10000 nM; IC50 (P. cynomolgi schizont): 42 nM; CC50 [3]: > 10000 nM; IC50 (P. cynomolgi hypnozoite): 110 nM
3 | CN1CCC(c2cc(-c3ccncc3C#N)c(-c3ccc(F)cc3)[nH]2)CC1 [RUPB-8] | – | – | – | – | 40–700 fold | 1100 nM | 40–700 fold | 780 nM | -8.4 kcal/mol | 12 nM | – | –
4 | CN1CCC(c2[nH]c(-c3ccc(F)cc3)c(-c3ccncc3)c2C#N)CC1 [RUPB-18] | – | – | – | – | 40–700 fold | 560 nM | 40–700 fold | 700 nM | -8.4 kcal/mol | 25 nM | 5–125 fold | –
5 | COc1ccc(-c2[nH]c(C3CCN(C)CC3)cc2-c2ccncc2)cc1 [RUPB-34] | – | – | – | – | 40–700 fold | 6400 nM | 40–700 fold | 9200 nM | -6.9 kcal/mol | 620 nM | 5–125 fold | –
6 | C[C@H]1CN(C)CC[C@H]1c1cc(-c2ccncc2)c(-c2ccc(F)cc2)[nH]1.Cl.Cl [RUPB-58, 4-{5-[(3R,4R)-1,3-Dimethylpiperidin-4-yl]-2-(4-fluorophenyl)-1H-pyrrol-3-yl}pyridine Dihydrochloride] | 467 nM | 239 nM | 57 nM | 170 nM | – | – | – | – | – | – | – | IC50 against DHA-sensitive CamWT compared with DHA-resistant CamC580Y [4]: similar; IC50 (P. falciparum TM90_C2B): 122 nM
